Read-outs that look alike come from different tables or passages of the source.
Tests used:
HDAC7 = target: T1, HDAC7 (Homo sapiens, UniProt Q8WUI4); assay: HDAC biochemical activity measurement (fluorescent substrate deacetylation);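 also: fluorogenic deacetylation assay using acetyl-lysine substrate at 20 µM, enzyme and compound incubated 30 min at 37 °C, then developer added, fluorescence read at 360/460 nm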; details: HDAC7; 37° C. 30 minutes
T1 sequence (Q8WUI4 1-952): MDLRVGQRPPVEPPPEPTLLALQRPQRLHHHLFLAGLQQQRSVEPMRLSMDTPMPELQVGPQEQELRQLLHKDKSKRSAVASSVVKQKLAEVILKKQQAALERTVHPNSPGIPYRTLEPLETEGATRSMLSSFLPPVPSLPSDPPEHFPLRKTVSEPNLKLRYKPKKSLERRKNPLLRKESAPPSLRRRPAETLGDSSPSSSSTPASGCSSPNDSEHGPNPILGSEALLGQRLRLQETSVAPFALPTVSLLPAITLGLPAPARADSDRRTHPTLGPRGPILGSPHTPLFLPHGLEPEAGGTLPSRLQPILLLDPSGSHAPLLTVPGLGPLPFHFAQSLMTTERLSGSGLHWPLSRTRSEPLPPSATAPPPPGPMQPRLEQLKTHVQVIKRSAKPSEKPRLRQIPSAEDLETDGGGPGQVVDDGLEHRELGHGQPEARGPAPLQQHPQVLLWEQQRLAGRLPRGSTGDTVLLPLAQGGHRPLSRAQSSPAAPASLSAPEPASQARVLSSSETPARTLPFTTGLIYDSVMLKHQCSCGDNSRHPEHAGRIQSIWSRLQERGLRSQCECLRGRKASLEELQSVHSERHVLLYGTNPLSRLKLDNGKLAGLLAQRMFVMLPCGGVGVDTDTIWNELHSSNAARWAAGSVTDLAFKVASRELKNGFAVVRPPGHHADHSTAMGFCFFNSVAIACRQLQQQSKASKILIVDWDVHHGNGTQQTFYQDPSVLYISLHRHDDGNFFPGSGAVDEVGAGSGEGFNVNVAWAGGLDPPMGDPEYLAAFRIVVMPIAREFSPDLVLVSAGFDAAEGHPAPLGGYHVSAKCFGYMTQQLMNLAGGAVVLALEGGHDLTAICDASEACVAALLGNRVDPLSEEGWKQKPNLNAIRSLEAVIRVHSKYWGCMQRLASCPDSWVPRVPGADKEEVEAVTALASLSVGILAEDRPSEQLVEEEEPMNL

[1] = test system: A549 (human lung cancer cells); assay: MTT cancer cell growth inhibition; format: cell-based; details: Homo sapiens, A549, 72 h, MTT, 72 hours incubation, read-out: GI50 A54
Procedure, shortened: (§1)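 GI50 values come from MTT viability: after 72 h compound exposure (final 10^−5–10^−10 M, three wells each) of cells plated overnight at 1500/well in 10% FBS medium, MTT was given for 4 h. The DMSO-solubilised formazan was then measured at 570 nm.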

[2] = test system: BGC-823 (human gastric cancer cells); assay: MTT cancer cell growth inhibition; format: cell-based; details: Homo sapiens, BGC-823, 72 h, MTT, 72 hours incubation, read-out: GI50 BG
Procedure, shortened: as §1

[3] = test system: Bel-7402 (human hepatoma cells); assay: MTT cancer cell growth inhibition; format: cell-based; details: Homo sapiens, Bel-7402, 72 h, MTT, 72 hours incubation, Bel-7402 cells; read-out: GI50 Bel-7402
Procedure, shortened: as §1

[4] = test system: DU145 (human prostate cancer cells); assay: MTT cancer cell growth inhibition; format: cell-based; details: Homo sapiens, DU-145, 72 h, MTT, 72 hours incubation, read-out: GI50 Du1
Procedure, shortened: as §1

[5] = test system: H1975 (non-small cell lung adenocarcinoma); assay: MTT cancer cell growth inhibition; format: cell-based; details: Homo sapiens, NCI-H1975, 72 h, MTT, 72 hours incubation, H1975 cells; read-out: GI50 H1975
Procedure, shortened: as §1

[6] = test system: HCC827 (human non-small cell lung cancer cells); assay: MTT cancer cell growth inhibition; format: cell-based; details: Homo sapiens, HCC827, 72 h, MTT, 72 hours incubation, HCC827 cells; read-out: GI50 HCC827
Procedure, shortened: as §1

[7] = test system: HT1080 (human fibrosarcoma cells); assay: MTT cancer cell growth inhibition; format: cell-based; details: Homo sapiens, HT-1080, 72 h, MTT, 72 hours incubation, read-out: GI50 HT1
Procedure, shortened: as §1

[8] = test system: Hela (human cervical cancer cells); assay: MTT cancer cell growth inhibition; format: cell-based; details: Homo sapiens, HeLa, 72 h, MTT, 72 hours incubation, read-out: GI50 Hela
Procedure, shortened: as §1

[9] = test system: Huh-7 (human hepatoma cells); assay: MTT cancer cell growth inhibition; format: cell-based; details: Homo sapiens, Huh-7, 72 h, MTT, 72 hours incubation, Huh-7 cells; read-out: GI50 Huh-7
Procedure, shortened: as §1

[10] = test system: K562 (human leukemia cells); assay: MTT cancer cell growth inhibition; format: cell-based; details: Homo sapiens, K562, 72 h, MTT, 72 hours incubation, K562 cells; read-out: GI50 K562
Procedure, shortened: as §1

[11] = test system: KBM-5 (human chronic myelogenous leukemia); assay: MTT cancer cell growth inhibition; format: cell-based; details: Homo sapiens, KBM5, 72 h, MTT, 72 hours incubation, KBM-5 cells; read-out: GI50 KBM-5
Procedure, shortened: as §1

[12] = test system: KBM5-T315I (human chronic myelogenous leukemia); assay: MTT cancer cell growth inhibition; format: cell-based; details: Homo sapiens, 72 h, MTT, 72 hours incubation, KBM5-T315I cells; read-out: GI50 KBM5-T315I
Procedure, shortened: as §1

[13] = test system: MCF-7 (human breast cancer cells); assay: MTT cancer cell growth inhibition; format: cell-based; details: Homo sapiens, MCF7, 72 h, 72 hours incubation, read-out: GI50 MCF
Procedure, shortened: as §1

[14] = test system: MDA-MB-231 (breast cancer cells); assay: MTT cancer cell growth inhibition; format: cell-based; details: Homo sapiens, MDA-MB-231, 72 h, read-out: GI50 MDA-MB-231, MTT, 72 hours incubation, MDA-MB-231 cells
Procedure, shortened: as §1

[15] = test system: MOLT-4 (human acute lymphoblastic leukemia cells); assay: MTT cancer cell growth inhibition; format: cell-based; details: Homo sapiens, MOLT-4, 72 h, MTT, 72 hours incubation, read-out: GI50 Mol
Procedure, shortened: as §1

[16] = test system: N-87 (human gastric cancer cells); assay: MTT cancer cell growth inhibition; format: cell-based; details: Homo sapiens, 72 h, MTT, 72 hours incubation, N-87 cells; read-out: GI50 N-87
Procedure, shortened: as §1

[17] = test system: PANC-1 (Pac-1, human pancreatic cancer cells); assay: MTT cancer cell growth inhibition; format: cell-based; details: Homo sapiens, PANC-1, 72 h, MTT, 72 hours incubation, read-out: GI50 PAN
Procedure, shortened: as §1

[18] = test system: SGC-7901 (human gastric cancer cells); assay: MTT cancer cell growth inhibition; format: cell-based; details: Homo sapiens, SGC-7901, 72 h, MTT, 72 hours incubation, SGC-7901 cells; read-out: GI50 SGC-7901
Procedure, shortened: as §1

[19] = test system: U937 (human leukemia cells); assay: MTT cancer cell growth inhibition; format: cell-based; details: Homo sapiens, U-937, 72 h, MTT, 72 hours incubation, read-out: GI50 U93
Procedure, shortened: as §1

[20] = test system: lncap (prostate cancer cells); assay: MTT cancer cell growth inhibition; format: cell-based; details: Homo sapiens, LNCaP, 72 h, MTT, 72 hours incubation, read-out: GI50 lnca
Procedure, shortened: as §1

| SMILES | IC50 HDAC7 (HDAC7) | GI50 [1] [nM] | GI50 [2] [nM] | GI50 [3] [nM] | GI50 [4] [nM] | GI50 [5] [nM] | GI50 [6] [nM] | GI50 [7] [nM] | GI50 [8] [nM] | GI50 [9] [nM] | GI50 [10] [nM] | GI50 [11] [nM] | GI50 [12] [nM] | GI50 [13] [nM] | GI50 [14] [nM] | GI50 [15] [nM] | GI50 [16] [nM] | GI50 [17] [nM] | GI50 [18] [nM] | GI50 [19] [nM] | other results |
| --- | --- | --- | --- | --- | --- | --- | --- | --- | --- | --- | --- | --- | --- | --- | --- | --- | --- | --- | --- | --- | --- |
| C/C=C1\NC(=O)c2nc(ccc2F)CNC(=O)C[C@@H](/C=C/CCS)OC(=O)[C@H](Cc2cccc3ccccc23)NC1=O [Compound 124] | no activity | 50 | 30 | 72 | 20 | 28 | 35 | 30 | 30 | 16 | 76 | 57 | 15 | 30 | 51 | 50 | 45 | 690 | 42 | 100 | GI50 [20]: 70 nM |
| C/C=C1\NC(=O)c2nc(ccc2SC)CNC(=O)C[C@@H](/C=C/CCSC(=O)CCCC)OC(=O)[C@H](C(C)C)NC1=O [Compound 156] | no activity | – | – | 23 | – | 18 | 43 | – | – | 35 | 31 | 17 | 33 | – | 63 | – | 65 | – | 45 | – | GI50 ([1]; A549 cells): 30 nM; GI50 ([2]; BGC-823 cells): 50 nM; GI50 ([4]; DU145 cells): 80 nM; GI50 ([7]; HT1080 cells): 80 nM; GI50 ([8]; Hela cells): 30 nM; GI50 ([13]; MCF-7 cells): 20 nM; GI50 ([15]; MOLT-4 cells): 10 nM; GI50 ([17]; PANC-1 cells): 50 nM; GI50 ([19]; U937 cells): 20 nM; GI50 ([20]; lncap cells): 30 nM |
| C/C=C1\NC(=O)c2cc(SC)cc(n2)CNC(=O)C[C@@H](/C=C/CCSC(C)=O)OC(=O)[C@@H](C)NC1=O [Compound 221] | no activity | – | – | 57 | – | 35 | 41 | – | – | 41 | 74 | 36 | 41 | – | 43 | – | 65 | – | 26 | – | GI50 ([1]; A549 cells): 20 nM; GI50 ([2]; BGC-823 cells): 50 nM; GI50 ([4]; DU145 cells): 50 nM; GI50 ([7]; HT1080 cells): 80 nM; GI50 ([8]; Hela cells): 30 nM; GI50 ([13]; MCF-7 cells): 80 nM; GI50 ([15]; MOLT-4 cells): 70 nM; GI50 ([17]; PANC-1 cells): 50 nM; GI50 ([19]; U937 cells): 70 nM; GI50 ([20]; lncap cells): 20 nM |

The remaining molecules from weak to strong by GI50 [3], led by results:

| IC50 HDAC7 (HDAC7) | GI50 [1] [nM] | GI50 [2] [nM] | GI50 [3] [nM] | GI50 [4] [nM] | GI50 [5] [nM] | GI50 [6] [nM] | GI50 [7] [nM] | GI50 [8] [nM] | GI50 [9] [nM] | GI50 [10] [nM] | GI50 [11] [nM] | GI50 [12] [nM] | GI50 [13] [nM] | GI50 [14] [nM] | GI50 [15] [nM] | GI50 [16] [nM] | GI50 [17] [nM] | GI50 [18] [nM] | GI50 [19] [nM] | SMILES | other results |
| --- | --- | --- | --- | --- | --- | --- | --- | --- | --- | --- | --- | --- | --- | --- | --- | --- | --- | --- | --- | --- | --- |
| no activity | – | – | 73 | – | 45 | 32 | – | – | 23 | 26 | 35 | 41 | – | 78 | – | 84 | – | 31 | – | C/C=C1\NC(=O)c2cc(SC)cc(n2)CNC(=O)C[C@@H](/C=C/CCSC(=O)CCCCCCC)OC(=O)[C@H](CC)NC1=O [Compound 172] | GI50 ([1]; A549 cells): 30 nM; GI50 ([2]; BGC-823 cells): 60 nM; GI50 ([4]; DU145 cells): 40 nM; GI50 ([7]; HT1080 cells): 60 nM; GI50 ([8]; Hela cells): 50 nM; GI50 ([13]; MCF-7 cells): 60 nM; GI50 ([15]; MOLT-4 cells): 20 nM; GI50 ([17]; PANC-1 cells): 80 nM; GI50 ([19]; U937 cells): 40 nM; GI50 ([20]; lncap cells): 20 nM |
| no activity | 30 | 60 | 42 | 60 | 32 | 71 | 100 | 70 | 54 | 38 | 99 | 28 | 60 | 22 | 100 | 11 | 60 | 43 | 30 | C/C=C1\NC(=O)c2ccc(F)c(n2)CNC(=O)C[C@@H](/C=C/CCS)OC(=O)[C@H](C)NC1=O [Compound 114] | GI50 [20]: 70 nM |
| no activity | 70 | 50 | 32 | 30 | 42 | 54 | 100 | 130 | 41 | 28 | 23 | 11 | 70 | 38 | 30 | 58 | 40 | 42 | 30 | C/C=C1\NC(=O)c2ccc(F)c(n2)CNC(=O)C[C@@H](/C=C/CCS)OC(=O)[C@H](Cc2ccc(O)cc2)NC1=O [Compound 130] | GI50 [20]: 20 nM |
| no activity | 60 | 60 | 16 | 40 | 58 | 88 | 70 | 60 | 31 | 42 | 19 | 22 | 10 | 24 | 20 | 31 | 70 | 69 | 60 | C/C=C1\NC(=O)c2ncc(F)c(n2)CNC(=O)C[C@@H](/C=C/CCSC(C)=O)OC(=O)[C@H](C)NC1=O [Compound 99] | GI50 [20]: 20 nM |
